Experimental findings from the OligoGym collection are described below.

HELM strings list units from the 5' end as sugar, base in round brackets, then linkage (d deoxyribose, r ribose, m 2'-O-methyl, p phosphodiester). Strings are as the collection lists them; they lack the last nucleoside at the 3' end of the tested compound. [moe] = 2'-O-(2-methoxyethyl) (MOE); [sp] = phosphorothioate linkage; [m5C] = 5-methylcytosine

In the data set the target is LRRK2. Put plainly: mouse, dose not given. Particulars: ASO.
“RNA1{[moe](A)[sp].[moe](G)p.[moe](T)[sp].[moe](T)[sp].[moe]([m5C])[sp].d([m5C])[sp].d(T)[sp].d(T)[sp].d([m5C])[sp].d(A)[sp].d(G)[sp].d(T)[sp].d([m5C])[sp].d(T)[sp].d([m5C])[sp].[moe](A)p.[moe](A)p.[moe](G)[sp].[moe](G)}$$$$ (last 3' nucleoside missing)”: the 3 h FOB score is 7 score 0-7.
Under “RNA1{[moe](A)[sp].[moe](G)p.[moe](T)p.[moe](T)[sp].[moe]([m5C])[sp].d([m5C])[sp].d(T)[sp].d(T)[sp].d([m5C])[sp].d(A)[sp].d(G)[sp].d(T)[sp].d([m5C])[sp].d(T)[sp].d([m5C])[sp].[moe](A)p.[moe](A)p.[moe](G)[sp].[moe](G)}$$$$ (last 3' nucleoside missing)” stands 7 score 0-7; under “RNA1{[moe](A)[sp].[moe]([m5C])p.[moe](G)p.[moe]([m5C])p.[moe](A)[sp].d([m5C])[sp].d(T)[sp].d(T)[sp].d(A)[sp].d(A)[sp].d([m5C])[sp].d(A)[sp].d(A)[sp].d(T)[sp].d(A)[sp].[moe](T)p.[moe]([m5C])p.[moe](A)[sp].[moe](T)}$$$$ (last 3' nucleoside missing)”, 0 score 0-7; under “RNA1{[moe](A)[sp].[moe](T)p.[moe](A)[sp].[moe](A)[sp].[moe](G)[sp].d(T)[sp].d(T)[sp].d(T)[sp].d([m5C])[sp].d(A)[sp].d(T)[sp].d(T)[sp].d([m5C])[sp].d(G)[sp].d(G)[sp].[moe](T)[sp].[moe](T)p.[moe](A)[sp].[moe](T)}$$$$ (last 3' nucleoside missing)”, 4 score 0-7.
Regarding “RNA1{[moe](T)[sp].[moe]([m5C])p.[moe](A)[sp].[moe](T)[sp].[moe](T)[sp].d([m5C])[sp].d(G)[sp].d(G)[sp].d(T)[sp].d(T)[sp].d(A)[sp].d(T)[sp].d(A)[sp].d(A)[sp].d(G)[sp].[moe](G)[sp].[moe]([m5C])p.[moe](A)[sp].[moe]([m5C])}$$$$ (last 3' nucleoside missing)”, the 3 h FOB score came to 7 score 0-7.
In the case of “RNA1{[moe](T)[sp].[moe](G)p.[moe]([m5C])[sp].[moe](T)[sp].[moe](G)[sp].d([m5C])[sp].d(T)[sp].d([m5C])[sp].d(A)[sp].d(T)[sp].d(A)[sp].d(T)[sp].d([m5C])[sp].d(T)[sp].d(A)[sp].[moe](A)[sp].[moe](A)p.[moe](G)[sp].[moe](A)}$$$$ (last 3' nucleoside missing)” it was 0 score 0-7.
In the case of “RNA1{[moe](A)[sp].[moe](T)p.[moe](T)[sp].[moe]([m5C])[sp].[moe](G)[sp].d(G)[sp].d(T)[sp].d(T)[sp].d(A)[sp].d(T)[sp].d(A)[sp].d(A)[sp].d(G)[sp].d(G)[sp].d([m5C])[sp].[moe](A)[sp].[moe]([m5C])p.[moe](A)[sp].[moe](G)}$$$$ (last 3' nucleoside missing)” it was 5 score 0-7; in that of “RNA1{[moe]([m5C])[sp].[moe](T)p.[moe](T)p.[moe](T)p.[moe]([m5C])[sp].d(A)[sp].d([m5C])[sp].d(T)[sp].d([m5C])[sp].d(A)[sp].d(T)[sp].d(A)[sp].d(G)[sp].d(G)[sp].d(G)[sp].[moe](A)p.[moe](A)p.[moe](T)[sp].[moe](G)}$$$$ (last 3' nucleoside missing)”, 2.5 score 0-7.
In the case of “RNA1{[moe](T)[sp].[moe](G)p.[moe]([m5C])[sp].[moe](T)[sp].[moe](T)[sp].d(T)[sp].d([m5C])[sp].d(A)[sp].d(T)[sp].d(A)[sp].d(G)[sp].d([m5C])[sp].d(T)[sp].d(T)[sp].d([m5C])[sp].[moe]([m5C])[sp].[moe](A)p.[moe]([m5C])[sp].[moe]([m5C])}$$$$ (last 3' nucleoside missing)” it was 4 score 0-7; in that of “RNA1{[moe](G)[sp].[moe](T)p.[moe](T)[sp].[moe](A)[sp].[moe](A)[sp].d([m5C])[sp].d(G)[sp].d([m5C])[sp].d(A)[sp].d([m5C])[sp].d(T)[sp].d(T)[sp].d(A)[sp].d(A)[sp].d([m5C])[sp].[moe](A)[sp].[moe](A)p.[moe](T)[sp].[moe](A)}$$$$ (last 3' nucleoside missing)”, 2 score 0-7.
“RNA1{[moe](G)[sp].[moe](T)p.[moe]([m5C])p.[moe](A)p.[moe](A)[sp].d(A)[sp].d([m5C])[sp].d(T)[sp].d([m5C])[sp].d(T)[sp].d(T)[sp].d([m5C])[sp].d(A)[sp].d(G)[sp].d(A)[sp].[moe](G)p.[moe](T)p.[moe](T)[sp].[moe](T)}$$$$ (last 3' nucleoside missing)”: the 3 h FOB score is 0 score 0-7.
On to “RNA1{[moe](G)[sp].[moe](G)p.[moe](A)p.[moe](G)p.[moe](A)[sp].d(T)[sp].d(T)[sp].d(A)[sp].d(T)[sp].d(T)[sp].d(T)[sp].d(A)[sp].d(G)[sp].d(T)[sp].d(G)[sp].[moe]([m5C])p.[moe]([m5C])p.[moe]([m5C])[sp].[moe](A)}$$$$ (last 3' nucleoside missing)”, for which the 3 h FOB score came out at 6 score 0-7.
On to “RNA1{[moe]([m5C])[sp].[moe]([m5C])p.[moe](A)p.[moe]([m5C])p.[moe](A)[sp].d(A)[sp].d(A)[sp].d([m5C])[sp].d(T)[sp].d([m5C])[sp].d(A)[sp].d(T)[sp].d(G)[sp].d(G)[sp].d(A)[sp].[moe]([m5C])p.[moe](T)p.[moe](T)[sp].[moe]([m5C])}$$$$ (last 3' nucleoside missing)”, for which the 3 h FOB score was 6 score 0-7.
Under “RNA1{[moe](T)[sp].[moe](T)p.[moe](G)[sp].[moe]([m5C])[sp].[moe](T)[sp].d(G)[sp].d([m5C])[sp].d(T)[sp].d([m5C])[sp].d(A)[sp].d(T)[sp].d(A)[sp].d(T)[sp].d([m5C])[sp].d(T)[sp].[moe](A)[sp].[moe](A)p.[moe](A)[sp].[moe](G)}$$$$ (last 3' nucleoside missing)” stands 3 score 0-7.
Under “RNA1{[moe](G)[sp].[moe](T)p.[moe](A)p.[moe]([m5C])p.[moe]([m5C])[sp].d([m5C])[sp].d(T)[sp].d(T)[sp].d(T)[sp].d([m5C])[sp].d([m5C])[sp].d(A)[sp].d(T)[sp].d(G)[sp].d(T)[sp].[moe](G)p.[moe](A)p.[moe](A)[sp].[moe]([m5C])}$$$$ (last 3' nucleoside missing)” stands 1 score 0-7; under “RNA1{[moe](G)[sp].[moe]([m5C])p.[moe](T)p.[moe](G)p.[moe]([m5C])[sp].d(T)[sp].d([m5C])[sp].d(A)[sp].d(T)[sp].d(A)[sp].d(T)[sp].d([m5C])[sp].d(T)[sp].d(A)[sp].d(A)[sp].[moe](A)p.[moe](G)p.[moe](A)[sp].[moe]([m5C])}$$$$ (last 3' nucleoside missing)”, 0 score 0-7; under “RNA1{[moe](T)[sp].[moe](T)p.[moe]([m5C])p.[moe](A)p.[moe](T)[sp].d(T)[sp].d([m5C])[sp].d(G)[sp].d(G)[sp].d(T)[sp].d(T)[sp].d(A)[sp].d(T)[sp].d(A)[sp].d(A)[sp].[moe](G)p.[moe](G)p.[moe]([m5C])[sp].[moe](A)}$$$$ (last 3' nucleoside missing)”, 4 score 0-7.
